Test results: PMC11784839, “Monoaminergic neurotransmitters are bimodal effectors of tau aggregation” (Science Advances, 2025)

Target: tau (Homo sapiens, UniProt P10636)
Assay: MCE Phenols Library screening, tau biosensor cell seeding assay (AvZ)
Assay type: cell-based
Conditions: for Z repl 1 / Z Repl 2: Z score; for Z repl 1 / raw data 1: replicate 1; for Z Repl 2 / raw data 2: replicate 2; for av Z: average Z score of the two replicates; for AvZ (average z score of seeding, SDs from the mean level of seeding): 10 μM phenol in cell cultures, AD brain homogenate preincubated 16 hours, two biological replicates, positive = catalyzes seeding, negative = inhibits
[1] = average puncta of the two replicates
[2] = tau biosensor seeding, MCE Phenols Library screen

Sequence of tau (P10636 623-695 limits assumed): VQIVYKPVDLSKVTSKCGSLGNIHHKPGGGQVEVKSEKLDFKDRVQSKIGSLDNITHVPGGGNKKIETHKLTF

| Z repl 1 | Z Repl 2 | av Z (MCE Phenols Library screen) | av puncta [1] | raw data 1 (puncta) | raw data 2 (puncta) | av Z [2] | av puncta (average of raw data 1 and 2) | AvZ (average z score of seeding, SDs from the mean level of seeding) | raw data 1 (raw puncta) | raw data 2 (raw puncta) | Structure (SMILES) | av Z (tau seeding) |
| --- | --- | --- | --- | --- | --- | --- | --- | --- | --- | --- | --- | --- |
| -1.702 | -1.085 | -1.394 | – | 5911.71 | 1176.23 | – | 3543.97 | – | – | – | O=c1c(O)c(-c2ccc(O)cc2O)oc2cc(O)cc(O)c12 [Morin] | – |
| -0.601 | -0.306 | -0.454 | 14314.5 | – | – | – | – | – | 19129.3 | 9499.74 | CC(C)=CCc1c(-c2ccc(O)cc2O)oc2c3c(cc(O)c2c1=O)OC(C)(C)C=C3 [Morusin] | – |
| -0.183 | -0.34 | -0.262 | 16641.5 | – | – | – | – | – | 24150.5 | 9132.57 | OC[C@H]1O[C@@H](Oc2cc(O)cc(/C=C/c3ccc(O[C@@H]4O[C@H](CO)[C@@H](O)[C@H](O)[C@H]4O)cc3O)c2)[C@H](O)[C@@H](O)[C@@H]1O [Mulberroside A] | – |
| 0.959 | 0.951 | – | – | 37867.4 | 22918.7 | – | 30393 | 0.955 | – | – | NCC(c1ccc(O)cc1)C1(O)CCCCC1 (stereo not drawn) [N,N,O-Tridesmethylvenlafaxine] | – |
| 0.332 | -0.702 | – | – | 30331 | 5267.16 | – | 17799.1 | -0.185 | – | – | O=C(/C=C/c1ccc(O)cc1)NCCc1c[nH]c2ccc(O)cc12 [N-(p-Coumaroyl) Serotonin] | – |
| 0.285 | -0.756 | – | 17233.8 | – | – | – | – | -0.235 | 29776.2 | 4691.42 | CC(=O)NCCc1c[nH]c2ccc(O)cc12 [N-Acetyl-5-hydroxytryptamine] | – |
| -0.073 | -0.875 | – | 14449.6 | 25475.6 | 3423.63 | – | – | -0.474 | – | – | CC(=O)N[C@@H](Cc1ccc(O)cc1)C(=O)O [N-Acetyl-L-tyrosine] | – |
| 0.249 | -0.653 | -0.202 | 17563.5 | – | – | – | – | – | 29338.6 | 5788.5 | COc1cc(-c2oc3cc(O)cc(O)c3c(=O)c2O[C@@H]2O[C@H](CO[C@@H]3O[C@@H](C)[C@H](O)[C@@H](O)[C@H]3O)[C@@H](O)[C@H](O)[C@H]2O)ccc1O [Narcissin] | – |
| -1.271 | -0.404 | -0.838 | – | 11089.3 | 8451.87 | – | 9770.58 | – | – | – | O=C(/C=C/c1ccc(O)cc1)c1c(O)cc(O)cc1O [Naringenin chalcone] | – |
| -1.009 | -0.535 | -0.772 | – | 14234.4 | 7055.07 | – | 10644.7 | – | – | – | COc1cc2oc(-c3ccccc3)cc(=O)c2c(O)c1O [Negletein] | – |
| 0.415 | -0.147 | – | – | 31334.3 | 11192.7 | – | 21263.5 | – | – | – | CC(C)=CCc1cc(-c2coc3cc(O)ccc3c2=O)ccc1O [Neobavaisoflavone] | 0.134 |
| -0.752 | -0.408 | -0.58 | 12870.1 | 17326.7 | 8413.44 | – | – | – | – | – | O=C(/C=C/c1ccc(O)c(O)c1)O[C@@H]1C[C@@](O)(C(=O)O)C[C@@H](O)[C@@H]1O [Neochlorogenic acid] | – |
| 1.202 | 0.25 | – | – | 40782.2 | 15434.5 | 0.726 | 28108.4 | – | – | – | COc1ccc(-c2cc(=O)c3c(O)cc(O[C@@H]4O[C@H](CO)[C@@H](O)[C@H](O)[C@H]4O[C@@H]4O[C@@H](C)[C@H](O)[C@@H](O)[C@H]4O)cc3o2)cc1O [Neodiosmin] | – |
| -0.172 | -0.225 | -0.198 | 17327.7 | – | – | – | – | – | 24288.2 | 10367.2 | COc1ccc(CCC(=O)c2c(O)cc(O[C@@H]3O[C@H](CO)[C@@H](O)[C@H](O)[C@H]3O[C@@H]3O[C@@H](C)[C@H](O)[C@@H](O)[C@H]3O)cc2O)cc1O [Neohesperidin dihydrochalcone] | – |

The remaining lines, values behind:

| Structure (SMILES) | Z repl 1 | Z Repl 2 | av Z (MCE Phenols Library screen) | av puncta [1] | raw data 1 (puncta) | raw data 2 (puncta) | av Z [2] | av puncta (average of raw data 1 and 2) | AvZ (average z score of seeding, SDs from the mean level of seeding) | raw data 1 (raw puncta) | raw data 2 (raw puncta) | av Z (tau seeding) |
| --- | --- | --- | --- | --- | --- | --- | --- | --- | --- | --- | --- | --- |
| COc1ccc(-c2oc3c(CCC(C)(C)O)c(O[C@@H]4O[C@H](CO)[C@@H](O)[C@H](O)[C@H]4O)cc(O)c3c(=O)c2O)cc1 [Maohuoside A] | -0.381 | -0.64 | -0.51 | 13854.4 | 21773.2 | 5935.58 | – | – | – | – | – | – |
| C[C@@H]1O[C@@H](OC[C@H]2O[C@@H](Oc3c(-c4ccc(O)cc4)oc4cc(O)cc(O)c4c3=O)[C@H](O[C@@H]3O[C@@H](C)[C@H](O)[C@@H](O)[C@H]3O)[C@@H](O)[C@H]2O)[C@H](O)[C@H](O)[C@H]1O [Mauritianin] | 0.781 | 1.032 | – | – | 35719.4 | 23785 | 0.906 | 29752.2 | – | – | – | – |
| O=c1cc(-c2ccc(O)cc2)oc2cc(O)c([C@@H]3O[C@H](CO)[C@@H](O)[C@H](O)[C@H]3O[C@@H]3O[C@H](CO)[C@@H](O)[C@H](O)[C@H]3O)c(O)c12 [Meloside A] | -1.304 | -0.878 | -1.091 | – | 10691.8 | 3384.65 | – | 7038.23 | – | – | – | – |
| COc1ccc(O)cc1 [Mequinol] | 0.5 | 0.017 | – | – | 32350 | 12942.5 | – | 22646.3 | 0.258 | – | – | – |
| COC(=O)Cc1ccc(O)cc1 [Methyl 4-hydroxyphenylacetate] | -0.457 | -0.762 | – | 12741.3 | 20857.9 | 4624.75 | – | – | -0.61 | – | – | – |
| COC(=O)c1ccccc1O [Methyl Salicylate] | -0.127 | -0.877 | – | 14109.8 | 24825.4 | 3394.27 | – | – | -0.502 | – | – | – |
| COC(=O)/C=C/c1ccc(O)c(O)c1 [Methyl caffeate] | -0.415 | -0.284 | – | 15550.1 | – | – | – | – | -0.349 | 21362.3 | 9737.92 | – |
| COC(=O)c1cc(O)c(O)c(O)c1 [Methyl gallate] | -1.727 | -0.895 | – | – | 5612.12 | 3211.88 | – | 4412 | -1.311 | – | – | – |
| COC(=O)[C@@H](Cc1ccc(O)c(O)c1)OC(=O)/C=C/c1ccc(O)c(O)c1 [Methyl rosmarinate] | -0.241 | -0.521 | -0.381 | 15329.6 | – | – | – | – | – | 23459.6 | 7199.56 | – |
| COc1ccc2c(c1OC)O[C@H]1c3ccc(O)cc3OC[C@@H]21 [Methylnissolin] | -0.257 | -1.004 | -0.63 | 12658.4 | 23269.5 | 2047.37 | – | – | – | – | – | – |
| O=C(O)[C@H]1O[C@@H](Oc2c(-c3ccc(O)c(O)c3)oc3cc(O)cc(O)c3c2=O)[C@H](O)[C@@H](O)[C@@H]1O [Miquelianin] | 1.087 | 0.729 | – | – | 39402.1 | 20555.6 | 0.908 | 29978.8 | – | – | – | – |
| COC(=O)c1c2c(c3ccccc3c1O)OC(C)(C)C=C2 [Mollugin] | 0.972 | 0.582 | – | – | 38015.5 | 18983.8 | 0.777 | 28499.6 | – | – | – | – |
| Oc1cc(O)cc(-c2cc3ccc(O)cc3o2)c1 [Moracin M] | 0.06 | -0.745 | -0.343 | 15938.9 | – | – | – | – | – | 27063.9 | 4813.92 | – |
| CC(C)=CCc1c2c(c(O)c3c1O[C@]14C(=C[C@@H]5C[C@H]1C(C)(C)O[C@@]4(C/C=C(/C)C(=O)O)C5=O)C3=O)C=CC(C)(C)O2 [Morellic acid] | -0.656 | -0.586 | -0.621 | 12492.8 | 18474.5 | 6511.03 | – | – | – | – | – | – |
| COc1cc2oc(-c3ccccc3)cc(=O)c2c(O)c1OC [Mosloflavone] | 0.192 | 0.208 | – | – | 28649.1 | 14991.8 | – | 21820.5 | – | – | – | 0.2 |
| C=CCc1cc(OC)c(O[C@@H](C)[C@H](O)c2ccc(O)c(OC)c2)c(OC)c1 [Myrislignan] | 1.234 | 0.299 | – | – | 41167.3 | 15954.5 | 0.766 | 28560.9 | – | – | – | – |
| O=C1C=CC(=O)c2c(O)ccc(O)c21 [Naphthazarin] | -0.196 | -0.791 | -0.494 | 14154.5 | 23991 | 4318.06 | – | – | – | – | – | – |
| O=C1N[C@@H]2C(=C[C@H](O)[C@@H](O)[C@H]2O)c2cc3c(c(O)c21)OCO3 [Narciclasine] | -2.127 | -0.234 | -1.181 | – | 817.989 | 10263 | – | 5540.49 | – | – | – | – |
